Values quoted from earlier work in US10001469B2, “Use of GPR83 to identify pruritus-related substances” (University of Miyazaki, priority 2010, dated 2018).
No end group written: not given here.

How the values were obtained:
[1] = system: SP-induced scratching behavior; details: pre-administration, Non-patent Documents 7 and 8; cited from earlier work
[2] = system: HK-1-induced scratching behavior; details: pre-administration, Non-patent Documents 7 and 8; cited from earlier work
thermal hyperalgesia = details: intrathecal administration; Non-patent Documents 7, 9, 10, 11; cited from earlier work
NK1R = NK1R (Homo sapiens, UniProt P25103); details: Non-patent Documents 4, 5, and 6; cited from earlier work
[3] = system: intrathecally catheterized rats; details: depending on the concentrations of peptides administered, Non-patent Document 7; cited from earlier work

Sequence of NK1R (P25103 whole entry, species assumed): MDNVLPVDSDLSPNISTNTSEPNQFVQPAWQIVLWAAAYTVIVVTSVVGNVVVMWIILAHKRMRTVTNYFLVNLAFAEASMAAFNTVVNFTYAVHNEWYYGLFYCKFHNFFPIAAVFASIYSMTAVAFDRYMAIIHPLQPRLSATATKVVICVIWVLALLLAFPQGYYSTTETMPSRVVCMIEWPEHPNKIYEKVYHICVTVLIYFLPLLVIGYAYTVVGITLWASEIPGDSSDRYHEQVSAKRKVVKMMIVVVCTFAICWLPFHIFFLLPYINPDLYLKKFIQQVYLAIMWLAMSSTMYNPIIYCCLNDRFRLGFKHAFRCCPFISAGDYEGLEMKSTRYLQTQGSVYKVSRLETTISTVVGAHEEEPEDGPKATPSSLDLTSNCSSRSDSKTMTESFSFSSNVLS

Row | Compound | suppression of SP-induced scratching behavior [1] | suppression of HK-1-induced scratching behavior [2] | induction of thermal hyperalgesia (thermal hyperalgesia) | affinity for NK1R (NK1R) | induction of scratching behavior by intrathecal administration [3]
1 | Ic1ccccc1CN[C@@H]1C2CCN(CC2)[C@@H]1C(c1ccccc1)c1ccccc1 (racemic) [L-703,606] | suppressed | suppressed | – | – | –
2 | Arg-Ser-Arg-Thr-Arg-Gln-Phe-Tyr-Gly-Leu-Met-NH2 (RSRTRQFYGLM-NH2; listed as Homo sapiens) [HK-1] | – | – | no such reaction at all | high affinity | induces scratching behavior
